From patent US20230346810A1, “ENDOGENOUS STABILIZATION OF CANNABINOIDS” (Abstrax Tech Inc., priority 2022, published 2023)

Assays:
[1] = Color change / oxidation of cannabinoid oils on exposure to air (visual); format: physicochemical; conditions: about 5% CBDA by weight added, homogenized under mild heat (about 70° C.)
[2] = UV-Visible spectroscopy of color purity of THC oils; format: physicochemical; conditions: 5% by weight CBDA added, versus sample without CBDA; FIG. 8
Description: The color purities of THC oils with and without acidic cannabinoids were measured using a LabTech BlueStar A UV-Vis Spectrophotometer. The data collection range was from 250 nm to 1100 nm at a scan rate of 3 nm per second. About 1 g of sample was added to scintillation vial followed by addition of 5 mL of ethanol. The solution was agitated for 2 min in order to fully dissolve the oil and transferred to a UV-Vis quartz cuvette. An ethanol background was collected prior to running the samples to reduce solvent.

SMILES: CCCCCc1cc(O)c2c(c1)OC(C)(C)[C@@H]1CCC(C)=C[C@@H]21 [Sample D9-THC, Δ^9-tetrahydrocannabinol]
- color of solution after CBDA addition [1]: yellow solution with minimal discoloration

SMILES: CCCCCc1cc(O)c2c(c1)OC(C)(C)[C@@H]1CC=C(C)C[C@@H]21 [Sample D8-THC, Δ8-tetrahydrocannabinol]
- visible absorption after CBDA addition (UV-Visible spectra) [2]: less visible absorption
